These results are taken from patent publication US20140249293A1, “Absent and Rare Peptides and Therapeutic Uses Thereof” (Boise State University, priority 2012, published 2014).

As usually defined, the IC50 is the concentration at which inhibition is half-maximal.

Where two headings read alike, the source gives them in different places. Ends that are not written are not given here.

Data set [1] deals with Normal (non-cancer) human lung fibroblast cells (WI-38). The data set can be described thus: MTT assay of WI-38 cells. It counts as cell-based. As to conditions: WI-38 normal fibroblasts, treated 1 hour, MTT 4 hours. On the procedure:
Normal (non-cancer) human lung fibroblast cells (WI-38) were also treated with the 9R, 9S1, and 120 peptides. WI-38 cells were treated with the peptides for 1 hour and followed by MTT for 4 hours. Although the treated cells show no decrease in MTT absorbance, this may have been due to the cells being plated at lower concentration, and may not have been actively dividing.

For data set [2], the system named is LnCaP cells. It counts as cell-based. The conditions noted are these: 24 h. From the text:
The HCS MITOCHONDRIAL HEALTH KIT™ (available from Invitrogen) includes a dye that is taken up by healthy, actively respiring mitochondria. The uptake of this dye can be visualized with fluorescent confocal microscopy. FIGS. 9A-9C show control LnCaP cells treated only with the vehicle control (i.e., no peptide). The Hoechst dye stained nuclei of cells, whether they were alive or dead (Excitation/Emission maxima—Hoechst 33342: 350/461 nm). FIG. 9A is a panel showing all nuclei stained with Hoechst dye. FIG. 9B is a panel showing healthy mitochondria stained with MitoHealth dye. FIG. 9C is a panel showing the merged images of 9A and 9B. The mitochondrial health dye incorporated into the cells depends on mitochondrial membrane potential (excitation/emission maxima—MitoHealth stain: 550/580 nm). The HCS MITOCHONDRIAL HEALTH KIT™ (Invitrogen) was developed for simultaneous quantitative measurements of two cell health parameters in the same cell: mitotoxicity and cytotoxicity. The MitoHealth stain accumulated in mitochondria in live cells proportional to the mitochondrial membrane potential.
A range of peptide concentrations was applied to the LnCap cells. […] The cells were treated for 24 hrs.
A range of peptide concentrations was used to treat LnCap cells. […] The cells were incubated with peptide for 24 hrs.

Data set [3] relates to LnCaP cells. As to conditions: for IC50: 48 h. On the procedure: LnCaP cells were treated with peptides 9R, 9S1, 120 (SEQ ID NO: 120) and a vehicle control. LnCaP cells were treated with the peptides for 48 hours, and incubated with MTT for 4 hours. For background level of absorbance, media alone was measured on the plate. […] Several concentrations of peptides were used to determine the IC50 of these peptides.
These cells were treated with an identical concentration (30 μM) of peptoprime peptide 120.

Data set [4] deals with paclitaxel-resistant LnCap cells. The data set can be described thus: MTT assay of paclitaxel-resistant LnCap cells (reversal of paclitaxel resistance). The class given is cell-based. The conditions noted are these: paclitaxel alone, even at 600 μM (data not shown). On the procedure:
The 9R peptide (SEQ ID NO: 200; labeled “9” in FIG. 16) was tested for its ability to reverse paclitaxel (TAXOL™) resistance in paclitaxel-resistant LnCap cells.
Paclitaxel-resistant LnCaP cells were treated with the peptides for 120 hours, and incubated with MTT for 4 hours. The paclitaxel-resistant LnCap cells were resistant to paclitaxel even at 600 μM concentration (data not shown). Referring to FIG. 16, the paclitaxel-resistant LnCap cells were resistant to 9R at the 100 μM level (labeled **). However, the combination of paclitaxel (at little as 30 nM) and 9R (at little as 5 μM) killed the paclitaxel-resistant LnCap cells (labeled ***).
On the technique in general: Formazan colour is commonly taken as a measure of viable cells.

Data set [5] has as its system mice. As to conditions: cited from earlier work.

For RRRRRNWMWC [Peptide 9R, RRRRRNWMWC], in data set [1], the MTT absorbance entry was “no decrease”. Besides, the figures for the IC50 in data set [2] and in data set [3] were 100 µM and around 50 µM, respectively.

With WFMHW [Peptide 120, WFMHW], the MTT absorbance result in data set [1] is on record as “no effect”. Take WCMNW [Peptide 9S1, WCMNW]: the MTT absorbance entry in data set [1] was “no decrease”. The IC50 in data set [2] is 30 µM; in data set [3], around 30 µM. In the case of `CC(=O)O[C@H]1C(=O)[C@@]2(C)[C@H]([C@H](OC(=O)c3ccccc3)[C@]3(O)C[C@H](OC(=O)[C@H](O)[C@@H](NC(=O)c4ccccc4)c4ccccc4)C(C)=C1C3(C)C)[C@]1(OC(C)=O)CO[C@@H]1C[C@@H]2O` [paclitaxel], in data set [4], the “sensitivity of paclitaxel-resistant LnCap cells (MTT)” value is reported as “resistant”.

Turning to AQGV, in data set [5], the “recuperation after lethal exposure to radiation” value is “shown promise in accelerating the recuperation”. `OO` [peroxide, Hydrogen peroxide, reference compound]: in data set [3] (LnCaP, treated 48 hours, MTT 4 hours), the “MTT absorbance value compared with control treatment cells” value was “marked decrease”.
